Assay results from patent publication US4395404A, “Synthetic thymosin β3 and β4 analogues” (George Washington University, priority 1982, dated 1983).
Where no end group is shown, it is not given here.

Tests used:
[1] = tested on: Peritoneal exudate cells (PEC) from guinea pig; test: Macrophage Migration Inhibitory Factor (MIF) assay, nonspecific inhibition of macrophage migration; type: cell-based, Hartley strain guinea pigs; details: less than 20% considered insignificant
Procedure: The standardized Macrophage Migration Inhibitory Factor (MIF) assay for natural thymosin β4, synthetic thymosin β4, compounds of formula XVI, (designated C12 β3), formula VI (designated C8 β4), formula IV (designated C10 β4), and formula VIII (designated C6 β4) was performed following the method of Thurman, et al., Lymphokines and Thymic Hormones: Their Potential Utilization in Cancer Therapeutics, ed. by Goldstein and Chirigos, Raven Press, New York, pp 145-157 (1981). Peritoneal exudate cells (PEC) from guinea pig were prepared in Hartley strain guinea pigs by injecting 20-30 ml of sterile mineral oil 3-5 days prior to the assay. On the day of the assay, the guinea pigs were anesthetized and injected i.p. with 50 ml of RPMI-1640. Following abdominal massage, the peritoneum was opened with a one inch incision in the umbilical region and the peritoneal fluids withdrawn. The peritoneal fluids were centrifuged at 200×g for 10 min and the pelleted cells resuspended in a small volume of RPMI for transfer to clean tubes. Following three more washes, the cells were resuspended, counted and adjusted to 45×10^6/ml for use. In some experiments mouse PEC were used in place of guinea pig PEC. The mouse PEC were induced in BALB/c normal or nude mice by injecting 1 ml of mineral oil i.p. 3 days prior obtaining the cells by washing the peritoneum with 5 ml of RPMI 1640. In some experiments macrophage-like cell lines, WEHI-3 and FC-1, were used in place of PEC. The WEHI-3 cells migrate and have been reported to respond to migration inhibitory factor (MIF). Likewise, the FC-1 cells are also migratory and respond to MIF. […] The percent nonspecific inhibition (PNSI) was calculated as: [formula] […] Percent nonspecific inhibition of migration of less than 20% was also considered insignificant. The date from these experiments are compiled in Table 3.

[2] = tested on: TdT activity in thymocytes; test: In vivo effect on TdT activity in thymocytes of hydrocortisone acetate (HCA) treated mice; design: species or system C57B1/6J mice; details: for TdT Specific Activity: daily for 11 days after 1.25 mg HCA at day 0, HCA-saline 6.4, normal 8.9; for TdT % Increase over HCA-saline: daily for 11 days after HCA
Procedure: The in vivo effect of thymosin fractions, i.e. thymosin β3 (designated HCA-thymosin β3), thymosin β4 (designated HCA-thymosin β4), thymosin fraction 5 (designated HCA-thymosin fr 5), compound of formula VI (designated HCA-synthetic C8 β4) and compound of formula XVI (designated HCA-synthetic C12 β3, on TdT activity in thymocytes of hydrocortisone acetate (HCA) treated C57B1/6J mice was assayed and determined according to the method of Hu, et al., 38, 1079 (1979).
For TdT activity determination [(following the Hu et al method (supra)], a 1.25 mg HCA injection per animal was carried out at day zero (0). Each injection was followed by daily treatment of the animal with the thymosin fractions (supra) or controls, i.e. no HCA and HCA-saline, for eleven (11) consecutive days. The increase in TdT specific activity (nmoles of dGTP incorporated per 10^8 thymocytes per hour) over that of HCA-saline treated animals was determined, the data compiled in columns 1-4 of Table 2.

Splenic lymphocytes = test: In vivo restoration of splenic mitogenic responses in HCA suppressed mice (tritiated thymidine incorporation); design: species or system C57B1/6J mice; details: for Mitogens PHA-P (cpm): HCA-saline 12,000, normal 30,000; for Mitogens Con A (cpm): HCA-saline 86,000, normal 210,000
Procedure: The in vivo effect of thymosin fractions (supra) on restoration of splenic mitogenic responses in HCA suppressed C57B1/6J mice was assayed and determined by the following method.
Splenic lymphocytes were removed sterilly, placed in plastic petri dishes containing RPMI 1640 (with 25 mM HEPES buffer, 100 μ/ml penicillin, 100 μg/ml streptomycin and 2mM L-glutamine) and a 64-mesh stainless steel wire screen. Single cell suspensions were obtained by further passage through a 25 GA needle. The cells were washed twice, counted using a Coulter Counter Model A and suspended to give a concentration of 6×10^6 leukocytes/ml. Cultures were prepared in flat bottom 96 well microtiter plates by placing 0.10 ml of the cell suspension into each well plus 0.05 ml 20% heat inactivated fetal calf serum (FCS) (resulting in 6×10^5 cells/well in 5% FCS final). Control cultures received 0.05 ml of RPMI 1640, and the stimulated cultures received 0.025 ml of RPMI 1640 containing various concentrations of thymosin and 0.025 ml of various concentrations of PHA-P (Difco, Detroit, Michigan), Con-A (Calbiochem, Oxnard, California), PWM (GIBCO, Grand Island, New York) or E. coli LPS (Difco, Detroit, Michigan) all made up in RPMI 1640. Cultures were pulsed by adding 1 uCi tritiated thymidine, 1.9 Ci/mM (Schwartz/Mann,Orangeburg, New Jersey), in 0.02 ml of RPMI 1640 8 hours before culture termination. Cultures were harvested utilizing a Multiple-Automated Sample Harvester (Microbiological Associates, Bethesda, Maryland). The resulting filter spots were dried and placed in glass liquid scintillation mini-vials to which was added 1 ml of scintillation cocktail. The vials were stoppered and the tritiated thymidine incorporation analyzed by scintillation spectrophotometry on an LKB liquid scintillation counter to provide Con A (cpm) and PHA-P (cpm). Processing of the data and necessary statistical tests were performed on a Wang 700 C Advanced Programming Calculator (Wang Labs, Tewksbury, Massachusetts) and are compiled in columns 1-2 and 5-6 of Table 2.

T-cell populations = details: partially purified; Low and Goldstein 1978; cited from earlier work
macrophages = details: Thurman et al. 1981; cited from earlier work
[3] = tested on: TdT positive cells in the thymus; details: following steroid induced immunosuppression; Low et al. 1981; cited from earlier work

| Substance | PNSI (percent nonspecific inhibition of macrophage migration) ([1]; 0.0005 nmoles/ml) [%] | PNSI (percent nonspecific inhibition of macrophage migration) ([1]; 0.005 nmoles/ml) [%] | PNSI (percent nonspecific inhibition of macrophage migration) ([1]; 0.05 nmoles/ml) [%] | PNSI (percent nonspecific inhibition of macrophage migration) ([1]; 0.5 nmoles/ml) [%] | TdT Specific Activity ([2]; 10 μg/injection) | TdT % Increase over HCA-saline ([2]; 10 μg/injection) [%] | Mitogens PHA-P (cpm) (Splenic lymphocytes; 10 μg/injection) | Mitogens Con A (cpm) (Splenic lymphocytes; 10 μg/injection) | Induction of TdT positive cells in T-cell populations (T-cell populations) | TdT Specific Activity ([2]; 1 μg/injection) | TdT % Increase over HCA-saline ([2]; 1 μg/injection) [%] | Migration of macrophages (macrophages) | Mitogens PHA-P (cpm) (Splenic lymphocytes; 1 μg/injection) | Mitogens Con A (cpm) (Splenic lymphocytes; 1 μg/injection) | Reappearance of TdT positive cells in the thymus [3] |
| --- | --- | --- | --- | --- | --- | --- | --- | --- | --- | --- | --- | --- | --- | --- | --- |
| IEQEKQQAGES [C10 β4, L-Isoleucyl-L-glutamyl-L-glutaminyl-L-glutamyl-L-lysyl-L-glutaminyl-L-glutaminyl-L-alanyl-glycyl-L-glutamyl-L-serine] | -5.3 | 10.7 | 18.8 | 21.6 | – | – | – | – | – | – | – | – | – | – | – |
| KQAGES [C6 β4, L-Lysyl-L-glutaminyl-L-alanyl-glycyl-L-glutamyl-L-serine] | 3.1 | -5.1 | 15.2 | 18.3 | – | – | – | – | – | – | – | – | – | – | – |
| QAGESDEITAKT [C12 β3, L-Glutaminyl-L-alanyl-glycyl-L-glutamyl-L-seryl-L-aspartyl-L-glutamyl-L-isoleucyl-L-threonyl-L-alanyl-L-lysyl-L-threonine] | 23.5 | 24.7 | 29.7 | 30.2 | 8.2 nmoles of dGTP incorporated pe | 28 | 65,000 cpm | 110,000 cpm | – | – | – | – | – | – | – |
| QEKQAGES [C8 β4, L-glutaminyl-L-glutamyl-L-lysyl-L-glutaminyl-L-alanyl-glycyl-L-glutamyl-L-serine] | 5.5 | 27.0 | 25.4 | 24.1 | 7.6 nmoles of dGTP incorporated pe | 19 | 11,000 cpm | 140,000 cpm | – | – | – | – | – | – | – |
| Synthetic thymosin β4: synthetic thymosin β4, tested beside natural thymosin β4 in the MIF assay (SDKPDMAEIEKFDKSKLKKTETQEKNPLPSKETIEQEKQAGES; Thymosin beta-4 synthetic; UniProt P62328 2-44, looked up) [reference compound] | – | 25.0 | 25.9 | 30.3 | – | – | – | – | – | – | – | – | – | – | – |
| thymosin β3 [HCA--Thymosin β3, reference compound] | – | – | – | – | – | – | – | – | induce TdT positive cells | 9.7 nmoles of dGTP incorporated pe | 52 | inhibit the migration of macrophages | 27,000 cpm | 120,000 cpm | accelerate the reappearance of TdT positive cells in the thymus |
| thymosin β4 [Natural thymosin β4, reference compound] | – | 23.1 | 29.2 | 37.6 | – | – | – | – | induce TdT positive cells | 8.8 nmoles of dGTP incorporated pe | 38 | inhibit the migration of macrophages | 10,000 cpm | 125,000 cpm | accelerate the reappearance of TdT positive cells in the thymus |
